Experimental data: patent US20150031668A1, “CHROMAN DERIVATIVES AS TRPM8 INHIBITORS” (AMGEN INC., priority 2013, published 2015)
Structures can show the parent of a compound that is named as a salt.

Target: T1, human TRPM8 (Homo sapiens, UniProt Q7Z2W7)
T1 construct: expressed in transfected cells; host or cells: Chinese hamster ovary (CHO) cells, T-REx tetracycline-inducible expression system (Invitrogen); co-transfected with pcDNA3.1 aequorin
Assay: Luminescence readout assay for measuring intracellular calcium (aequorin, CHO cells expressing human TRPM8; icilin, L-menthol or cold activation)
Type: cell-based
Conditions: not given
Outline: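 Activation was by 1 μM icilin, 100 μM L-menthol (test compound 2.5 min ahead) or cold buffer below 10° C (compound 1 min ahead). Calcium rise measured as aequorin luminescence in CHO cells with tetracycline-inducible human TRPM8.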

T1 sequence (Q7Z2W7 whole entry): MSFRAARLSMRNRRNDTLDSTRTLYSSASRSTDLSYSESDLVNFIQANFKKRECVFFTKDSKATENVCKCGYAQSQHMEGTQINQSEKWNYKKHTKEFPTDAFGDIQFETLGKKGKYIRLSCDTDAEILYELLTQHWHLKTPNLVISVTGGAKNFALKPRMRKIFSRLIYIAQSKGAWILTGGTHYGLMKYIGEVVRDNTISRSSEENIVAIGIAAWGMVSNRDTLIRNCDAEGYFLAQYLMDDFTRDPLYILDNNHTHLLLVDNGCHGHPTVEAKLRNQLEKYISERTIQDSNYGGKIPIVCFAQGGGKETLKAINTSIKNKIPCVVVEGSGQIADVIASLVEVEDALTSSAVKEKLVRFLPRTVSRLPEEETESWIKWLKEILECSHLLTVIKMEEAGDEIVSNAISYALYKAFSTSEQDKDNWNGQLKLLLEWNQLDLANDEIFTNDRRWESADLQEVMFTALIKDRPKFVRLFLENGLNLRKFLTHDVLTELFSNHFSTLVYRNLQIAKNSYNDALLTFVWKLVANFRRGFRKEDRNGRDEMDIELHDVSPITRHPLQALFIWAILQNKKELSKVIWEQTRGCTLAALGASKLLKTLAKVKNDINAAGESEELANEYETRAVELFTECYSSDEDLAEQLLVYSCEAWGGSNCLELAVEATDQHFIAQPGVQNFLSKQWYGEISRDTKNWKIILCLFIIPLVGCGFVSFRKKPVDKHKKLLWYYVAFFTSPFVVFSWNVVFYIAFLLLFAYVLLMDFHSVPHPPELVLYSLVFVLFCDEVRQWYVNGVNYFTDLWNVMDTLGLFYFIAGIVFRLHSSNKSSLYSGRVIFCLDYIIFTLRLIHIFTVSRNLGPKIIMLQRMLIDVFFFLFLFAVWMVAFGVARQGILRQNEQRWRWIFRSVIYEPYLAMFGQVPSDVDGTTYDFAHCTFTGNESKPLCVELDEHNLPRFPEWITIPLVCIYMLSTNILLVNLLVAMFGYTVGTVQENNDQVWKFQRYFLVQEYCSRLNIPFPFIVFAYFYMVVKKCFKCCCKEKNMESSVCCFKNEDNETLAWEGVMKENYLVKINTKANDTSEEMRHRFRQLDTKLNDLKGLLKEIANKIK

SMILES	IC50
O=C(N[C@]1(c2ccc(OC(F)(F)F)cc2)CCOc2cccnc21)c1ccc2[nH]cnc2c1 [Example 237, (S)-N-(4-(4-(trifluoromethoxy)phenyl)-3,4-dihydro-2H-pyrano[3,2-b]pyridin-4-yl)1lH-benzo[d]imidazole-5-carboxamide formate]	4.07 nM

Same assay, conditions: CHO cells expressing human TRPM8, icilin activation (1 μM), aequorin luminescence; read-out: hTRPM8 IC50

SMILES	IC50
O=C(N[C@]1(c2ccc(OC(F)(F)F)cc2)CCOc2cccnc21)c1ccns1 [Example 213, (S)-N-(4-(4-(trifluoromethoxy)phenyl)-3,4-dihydro-2H-pyrano[3,2-b]pyridin-4-yl)isothiazole-5-carboxamide formate]	81 nM
O=C(N[C@]1(c2ccc(OC(F)(F)F)cc2)CCOc2cccnc21)c1cnns1 [Example 214, (S)-N-(4-(4-(trifluoromethoxy)phenyl)-3,4-dihydro-2H-pyrano[3,2-b]pyridin-4-yl)-1,2,3-thiadiazole-5-carboxamide formate]	190 nM
O=C(N[C@]1(c2ccc(OC(F)(F)F)cc2)CCOc2cccnc21)c1cc2cccnc2[nH]1 [Example 216, (S)-N-(4-(4-(trifluoromethoxy)phenyl)-3,4-dihydro-2H-pyrano[3,2-b]pyridin-4-yl)-1H-pyrrolo[2,3-b] pyridine-2-carboxamide formate]	270 nM
O=C(N[C@]1(c2ccc(OC(F)(F)F)cc2)CCOc2cccnc21)c1c[nH]c2ncccc12 [Example 217, (S)-N-(4-(4-(trifluoromethoxy)phenyl)-3,4-dihydro-2H-pyrano[3,2-b]pyridin-4-yl)-1H-pyrrolo[2,3-b] pyridine-3-carboxamide fonnate]	46 nM
O=C(N[C@]1(c2ccc(OC(F)(F)F)cc2)CCOc2cccnc21)c1ccnc2[nH]ccc12 [Example 218, (S)-N-(4-(4-(trifluoromethoxy)phenyl)-3,4-dihydro-2H-pyrano[3,2-b]pyridin-4-yl)-1H-pyrrolo[2,3-b] pyridine-4-carboxamide formate]	10 nM
O=C(N[C@]1(c2ccc(OC(F)(F)F)cc2)CCOc2cccnc21)c1cc2ccccn2n1 [Example 219, (S)-N-(4-(4-(trifluoromethoxy)phenyl)-3,4-dihydro-2H-pyrano[3,2-b]pyridin-4-yl) pyrazolo[1,5-a] pyridine-2-carboxainide formate]	11 nM
O=C(N[C@]1(c2ccc(OC(F)(F)F)cc2)CCOc2cccnc21)c1cc2n(n1)CCCO2 [Example 220, (S)-N-(4-(4-(trifluoromethoxy)phenyl)-3,4-dihydro-2H-pyrano[3,2-b]pyridin-4-yl)-6,7-dihydro-5H-pyrazolo[5,1-b] [1,3]oxazine-2-carboxamide formate]	16 nM
O=C(N[C@]1(c2ccc(OC(F)(F)F)cc2)CCOc2cccnc21)c1cccc2cccnc12 [Example 221, (S)-N-(4-(4-(trifluoromethoxy)phenyl)-3,4-dihydro-2H-pyrano[3,2-b]pyridin-4-yl)quinoline-8-carboxamide formate]	31 nM
Cc1ccc2[nH]c(C(=O)N[C@]3(c4ccc(OC(F)(F)F)cc4)CCOc4cccnc43)cc2c1 [Example 222, (S)-5-methyl-N-(4-(4-(trifluoromethoxy)phenyl)-3,4-dihydro-2H-pyrano[3,2-b]pyridin-4-yl)-1H-indole-2-carboxamide formate]	2000 nM
O=C(N[C@]1(c2ccc(OC(F)(F)F)cc2)CCOc2cccnc21)c1ccc2c(=O)[nH]ccc2c1 [Example 223, (S)-1-oxo-N-(4-(4-(trifluoromethoxy)phenyl)-3,4-dihydro-2H-pyrano[3,2-b]pyridin-4-yl)-1,2-dihydroisoquinoline-6-carboxamide formate]	10 nM
O=C(N[C@]1(c2ccc(OC(F)(F)F)cc2)CCOc2cccnc21)c1cc2nccc(C3CC3)n2n1 [Example 224, (S)-7-cyclopropyl-N-(4-(4-(trifluoromethoxy)phenyl)-3,4-dihydro-2H-pyrano[3,2-b]pyridin-4-yl) pyrazolo[1,5-a] pyrimidine-2-carboxamide formate]	116 nM
COc1ccc2cc(C(=O)N[C@]3(c4ccc(OC(F)(F)F)cc4)CCOc4cccnc43)cnc2c1 [Example 225, (S)-7-methoxy-N-(4-(4-(trifluoromethoxy)phenyl)-3,4-dihydro-2H-pyrano[3,2-b]pyridin-4-yl)quinoline-3-carboxamide formate]	12 nM
O=C(N[C@]1(c2ccc(OC(F)(F)F)cc2)CCOc2cccnc21)c1cocn1 [Example 226, (S)-N-(4-(4-(trifluoromethoxy)phenyl)-3,4-dihydro-2H-pyrano[3,2-b]pyridin-4-yl)oxazole-4-carboxamide formate]	150 nM
Cn1ccc(C(=O)N[C@]2(c3ccc(OC(F)(F)F)cc3)CCOc3cccnc32)n1 [Example 227, (S)-1-methyl-N-(4-(4-(trifluoromethoxy)phenyl)-3,4-dihydro-2H-pyrano[3,2-b]pyridin-4-yl)-1H-pyrazole-3-carboxamide formate]	58.7 nM
Cn1nccc1C(=O)N[C@]1(c2ccc(OC(F)(F)F)cc2)CCOc2cccnc21 [Example 228, (S)-1-methyl-N-(4-(4-(trifluoromethoxy)phenyl)-3,4-dihydro-2H-pyrano[3,2-b]pyridin-4-yl)-lH-pyrazole-5-carboxamide formate_]	105 nM
O=C(N[C@]1(c2ccc(OC(F)(F)F)cc2)CCOc2cccnc21)c1cccs1 [Example 229, (S)-N-(4-(4-(trifluoromethoxy)phenyl)-3,4-dihydro-2H-pyrano[3,2-b]pyridin-4-yl)thiophene-2-carboxamide fomiate]	145 nM
O=C(N[C@]1(c2ccc(OC(F)(F)F)cc2)CCOc2cccnc21)c1ccsc1 [Example 230, (S)-N-(4-(4-(trifluoromethoxy)phenyl)-3,4-dihydro-2H-pyrano[3,2-b]pyridin-4-yl)thiophene-3-carboxamide formate]	20.1 nM
O=C(N[C@]1(c2ccc(OC(F)(F)F)cc2)CCOc2cccnc21)c1cscn1 [Example 231, (S)-N-(4-(4-(trifluoromethoxy)phenyl)-3,4-dihydro-2H-pyrano[3,2-b]pyridin-4-yl)thiazole-4-carboxamide formate]	45.2 nM
O=C(N[C@]1(c2ccc(OC(F)(F)F)cc2)CCOc2cccnc21)c1ccsn1 [Example 232, (S)-N-(4-(4-(trifluoromethoxy)phenyl)-3,4-dihydro-2H-pyrano[3,2-b]pyridin-4-yl)isothiazole-3-carboxamide formate]	25.8 nM
O=C(N[C@]1(c2ccc(OC(F)(F)F)cc2)CCOc2cccnc21)c1cncs1 [Example 233, (S)-N-(4-(4-(trifluoromethoxy)phenyl)-3,4-dihydro-2H-pyrano[3,2-b]pyridin-4-yl)thiazole-5-carboxamide formate]	222 nM
O=C(N[C@]1(c2ccc(OC(F)(F)F)cc2)CCOc2cccnc21)c1c[nH]c2ccccc12 [Example 234, (S)-N-(4-(4-(trifluoromethoxy)phenyl)-3,4-dihydro-2H-pyrano[3,2-b]pyridin-4-yl)-1H-indole-3-carboxamide foraiate]	56.8 nM
O=C(N[C@]1(c2ccc(OC(F)(F)F)cc2)CCOc2cccnc21)c1ccc2cc[nH]c2c1 [Example 235, (S)-N-(4-(4-(trifluoromethoxy)phenyl)-3,4-dihydro-2H-pyrano[3,2-b]pyridin-4-yl)-1H-indole-6-carboxamide formate]	35.7 nM
O=C(N[C@]1(c2ccc(OC(F)(F)F)cc2)CCOc2cccnc21)c1cc2ccccc2o1 [Example 236, (S)-N-(4-(4-(trifluoromethoxy)phenyl)-3,4-dihydro-2H-pyrano[3,2-b]pyridin-4-yl)benzofuran-2-carboxamide formate]	66.5 nM
O=C(N[C@]1(c2ccc(OC(F)(F)F)cc2)CCOc2cccnc21)c1cccc2[nH]cnc12 [Example 238, (S)-N-(4-(4-(trifluoromethoxy)phenyl)-3,4-dihydro-2H-pyrano[3,2-b]pyridin-4-yl)-1H-benzo[d]imidazole-4-carboxamide formate]	41.4 nM
O=C(N[C@]1(c2ccc(OC(F)(F)F)cc2)CCOc2cccnc21)c1cn2ccccc2n1 [Example 239, (S)-N-(4-(4-(trifluoromethoxy)phenyl)-3,4-dihydro-2H-pyrano[3,2-b]pyridin-4-yl)imidazo[1,2-a] pyridine-2-carboxamide formate]	34.6 nM
O=C(N[C@]1(c2ccc(OC(F)(F)F)cc2)CCOc2cccnc21)c1ccc2nccn2c1 [Example 240, (S)-N-(4-(4-(trifluoromethoxy)phenyl)-3,4-dihydro-2H-pyrano[3,2-b]pyridin-4-yl)imidazo[1,2-a] pyridine-6-carboxamide formate]	40.6 nM
O=C(N[C@]1(c2ccc(OC(F)(F)F)cc2)CCOc2cccnc21)c1nc2ccccc2[nH]1 [Example 241, (S)-N-(4-(4-(trifluoromethoxy)phenyl)-3,4-dihydro-2H-pyrano[3,2-b]pyridin-4-yl)-1H-benzo[d]imidazole-2-carboxamide formate]	769 nM
O=C(N[C@]1(c2ccc(OC(F)(F)F)cc2)CCOc2cccnc21)c1n[nH]c2ncccc12 [Example 242, (S)-N-(4-(4-(trifluoromethoxy)phenyl)-3,4-dihydro-2H-pyrano[3,2-b]pyridin-4-yl)-1H-pyrazolo[3,4-b] pyridine-3-carboxamide formate]	5.55 nM
O=C(N[C@]1(c2ccc(OC(F)(F)F)cc2)CCOc2cccnc21)c1cn2ncccc2n1 [Example 243, (S)-N-(4-(4-(trifluoromethoxy)phenyl)-3,4-dihydro-2H-pyrano[3,2-b]pyridin-4-yl)imidazo[1,2-b] pyridazine-2-carboxamide formate]	16.6 nM
O=C(N[C@]1(c2ccc(OC(F)(F)F)cc2)CCOc2cccnc21)c1cnn2cccnc12 [Example 244, (S)-N-(4-(4-(trifluoromethoxy)phenyl)-3,4-dihydro-2H-pyrano[3,2-b]pyridin-4-yl)pyrazolo[1,5-a] pyrimidine-3-carboxamide formate]	52.1 nM
